Patent publication US5658880A, “Sialic acid/fucose based medicaments” (Glycomed Incorporated, priority 1994, dated 1997)

Assays:
[1] = test system: neutrophil migration into the peritoneum; test: Murine thioglycollate induced peritonitis: neutrophil migration to the peritoneal cavity; type: in vivo, mouse (Swiss Webster); conditions: mice, tail vein injection, 3 h after thioglycollate, FIG. 7(a) and (b)
Excerpt: The efficaciousness of 7 and 10 was shown using a murine thioglycollate induced peritonitis model. The assay materials and methods are known in the art, or are generally described by Lewinsohn, D. et al., J. Immun., 138:4313-4321 (1987), or Watson, S. et al., Nature 349:164-166 (1991). This assay measures the ability of the compounds to inhibit neutrophil migration to the peritoneal cavity, the migration being initiated by the presence of thioglycollate in the peritoneal cavity. Thioglycollate is a known and effective inflammatory agent that causes neutrophil migration into the mouse peritoneum when it is administered intraperitoneally. Lewinsohn, D. et al., J. Immun. (1987) 138:4313-4321. Briefly, female Swiss Webster mice weighing about 25 grams were injected in the tail vein with 200 μl of phosphate buffered saline (PBS) with or without the appropriate compound. The pH of the solutions was adjusted to neutrality by the addition of either NaOH or HCL and sterilized by filtration through a 0.2 μ filter. Immediately following injection with the appropriate compound or PBS, the mice were injected intraperitoneally with 1 ml of thioglycollate medium prepared as described by the manufacturer, BBL. Three hours following injection of the thioglycollate solution the mice were sacrificed by CO2 asphyxiation, and the number of cells in the peritoneum removed by lavage with 5 ml of heparinized (5 U/ml) 0.9% sodium chloride solution containing 0.1% bovine serum albumin. Cell number was determined using a Coulter Counter. The cells were prepared for counting by diluting the lavage fluid with 1:50 of a commercial physiological isotonic solution, Isoton II, and the cells lysed by adding S/P Lysing and Hemoglobin Reagent (1:100 final dilution). Cell nuclei were counted in a sized window with lower and upper limits set at 3.9 and 5.7 μm, respectively.

[2] = test system: E-selectin; test: ELISA: inhibition of E-selectin-IgG chimera binding to 2,3 sLe^x glycolipid; parameters: species or system human; conditions: inhibition of binding to 2,3 sLex glycolipid
Excerpt: (§1) An ELISA assay is preferably used that employs recombinant fusion proteins composed of extracellular portions of the human selectins joined to human immunoglobulin heavy chain CH3, CH2, and hinge regions. See, for example, Walz et al., Science (1990) 250:1132; Aruffo et al., Cell (1991) 67:35; Aruffo et al., Proc. Natl. Acad. Sci. USA. (1992) 89:2292. The assay is well known in the art, and generally consists of the following three steps:
(§2) I. 2,3 sLe^x glycolipid (25 picomole/well) was transferred into microtiter wells as solutions and then evaporated off. Excess, which remained unattached, was washed off with water. The wells were then blocked with 5% BSA at room temperature for an hour and then washed with PBS containing 1 mM calcium.
(§3) II. Preparation of "multivalent" receptor of the Selectin-lgG chimera was carried out by combining the respective chimera (1 μg/mL) with biotin labelled goat F(ab')2 anti-human IgG (Fc specific) and streptavidin-alkaline phosphatase diluted 1:1000 in 1% BSA-PBS (1 mM calcium) and incubating at 37° C. for 15 min. This allowed the soluble multivalent receptor complex to form. III. Potential inhibitors such as the compounds of formula I or II were allowed to react with the soluble receptor at 37° C. for 45 min. This test assumes that optimal binding, between the soluble phase receptor complex and the inhibitor (non natural ligand), would have occurred within this time frame. This solution was then placed in the microtiter wells that were prepared in step I. The plate was incubated at 37° C. for 45 minutes to allow the soluble receptor to bind to its natural ligand. In the presence of a strong inhibitor only a few receptors should be free to bind to the microtiter plate coated with the natural ligand.
(§4) The positive control is the signal produced by the soluble receptor when it is allowed to react with 2,3 sLe^x glycolipid in the microtiter wells in the absence of any inhibitor. This positive control was considered 100% binding. The signal produced by the receptor that had been previously treated with an inhibitor (recorded as O.D.), was divided by the signal produced by the positive control and multiplied by 100 to calculate the % receptor bound to the well in the presence of the inhibitor. The reciprocal of this number is the % inhibition.
as §1, with “was employed” for “is preferably used”, “uses” for “employs”, “USA” for “USA.”
(§5) II. Preparation of "multivalent" receptor of the Selectin-IgG chimera was carried out by combining the respective chimera 1 μg/ml) with biotin labelled goat F(ab')2 anti-human IgG (Fc specific) and streptavidin-alkaline phosphatase diluted 1:1000 in 1% BSA-PBS (1 mM calcium) and incubating at 37° C. for 15 min. This allowed the soluble multivalent receptor complex to form.
(§6) III. Potential inhibitors such as compounds of formula I or II were allowed to react with the soluble receptor at 37° C. for 45 min. This test assumes that optimal binding, between the soluble phase receptor complex and the inhibitor (non natural ligand), would have occurred within this time frame. This solution was then placed in the microtiter wells that were prepared in step I. The plate was incubated at 37° C. for 45 minutes to allow the soluble receptor to bind to its natural ligand. In the presence of a strong inhibitor only a few receptors should be free to bind to the microtiter plate coated with the natural ligand.
(§7) The positive control is the signal produced by the soluble receptor when it is allowed to react with 2,3 sLe^x glycolipid in the microtiter wells in the absence of any inhibitor. This was considered 100% binding. […]

[3] = test system: L-selectin; test: ELISA: inhibition of L-selectin-IgG chimera binding to 2,3 sLe^x glycolipid; parameters: species or system human
Excerpt: as §1, §2, §3, §4
as §1, with “was employed” for “is preferably used”, “uses” for “employs”, “USA” for “USA.”
as §5, §6, §7

[4] = test system: P-selectin; test: ELISA: inhibition of P-selectin-IgG chimera binding to 2,3 sLe^x glycolipid; parameters: species or system human; conditions: inhibition of binding to 2,3 sLex glycolipid
Excerpt: as §1, §2, §3, §4
as §1, with “was employed” for “is preferably used”, “uses” for “employs”, “USA” for “USA.”
as §5, §6, §7

## CC(OCCCCCCOC1O[C@@H](C)[C@@H](O)[C@@H](O)[C@@H]1O)C(=O)O (stereo partly drawn) [Compound 10, 1-O-(α-β-L-Fucopyranosyl)-6-O-[(R,S)-1-Carboxyethyl]-Hexane]
[1]
  inhibit neutrophil migration into the peritoneum: inhibit neutrophil migration into the peritoneum
[2]
  IC50: 2 to 3 mM
[3]; FIG. 5 and FIG. 6, result in words
  inhibition of L-selectin binding to 2,3 sLe^x glycolipid: at all four concentrations of the compound tested there is significant inhibitory activity
[3]; inhibition of binding to 2,3 sLex glycolipid
  IC50: 2 to 3 mM
[4]
  IC50: ~500 µM
